Literature values, collected in patent US9988396B2, “Oxaziridine compound and production method thereof” (SEED RESEARCH INSTITUTE CO., LTD., priority 2016, dated 2018).

Experiments:
[1] = test system: PANC-1 pancreas cancer cell
[2] = test system: pathogens of candidiasis; details: statement in background, from patent document 1 (WO2015/030197)
[3] = test system: HepG2 liver cancer cell

For `CC=C(Cc1ccccc1)C12CC(O)CCN1O2` (stereo not drawn) [Kakeromycin], the cytotoxicity [1] is listed as “shows cytotoxicity”, the “antifungal activity / antibacterial activity against pathogens of candidiasis” value [2] is listed as “strong antibacterial activity” and the cytotoxicity [3] is listed as “shows cytotoxicity”.
